Test [1] concerns MCF7. Description: Inhibition of colony formation in human MCF7 cells at 1 to 10 uM incubated for 14 days by crystal violet staining based analysis. Type of test: functional, cell-based. The following applies: dose 1-10 µM, time 14.0 day.
The test system of test [2] is T47D. Description: Induction of cell cycle arrest in human T47D cells assessed as proportion of cells at G1 phase at 1 uM incubated for 24 hrs by flow cytometry (reference value: 66.6%). Type of test: functional.
For test [3], the system named is T47D. Kind of test: Induction of cell cycle arrest in human T47D cells assessed as proportion of cells at G2 phase at 1 uM incubated for 24 hrs by flow cytometry (reference value: 24.4%). Type of test: functional.
Test [4] has as its system MCF7. Description: Induction of cell cycle arrest in human MCF7 cells assessed as proportion of cells at S phase at 1 uM incubated for 24 hrs by flow cytometry (reference value: 27.6%). Type of test: functional. On the technique in general: A flow cytometer gives signals particle by particle.
Test [5] relates to MCF7. Description: Induction of cell cycle arrest in human MCF7 cells assessed as proportion of cells at G2 phase at 1 uM incubated for 24 hrs by flow cytometry (reference value: 25.5%). Format: functional.
Test [6] concerns MCF7. Description: Induction of cell cycle arrest in human MCF7 cells assessed as proportion of cells at S phase at 5 uM incubated for 24 hrs by flow cytometry (reference value: 27.6%). Format: functional.
The test system of test [7] is T47D. Kind of test: Induction of apoptosis and necrosis in human T47D cells assessed as live cells at 20 uM incubated for 48 hrs by AnnexinV-FITC/PI staining based flow cytometry (reference value: 96.26%). Type of test: functional.
The subject of test [8] is MCF7. Description: Antitumor activity against human MCF7 cells xenografted in BALB/c nude mouse assessed as reduction in tumor weight at 2 to 4 mg/kg, ip administered every other day. The following applies: dose 2-4 mg/kg. Format: functional, organism-based. For orientation: In xenograft studies the graft and the host belong to different species.
In test [9] the target is T1, Estrogen receptor (Homo sapiens) (UniProt P03372).
T1 sequence (whole entry): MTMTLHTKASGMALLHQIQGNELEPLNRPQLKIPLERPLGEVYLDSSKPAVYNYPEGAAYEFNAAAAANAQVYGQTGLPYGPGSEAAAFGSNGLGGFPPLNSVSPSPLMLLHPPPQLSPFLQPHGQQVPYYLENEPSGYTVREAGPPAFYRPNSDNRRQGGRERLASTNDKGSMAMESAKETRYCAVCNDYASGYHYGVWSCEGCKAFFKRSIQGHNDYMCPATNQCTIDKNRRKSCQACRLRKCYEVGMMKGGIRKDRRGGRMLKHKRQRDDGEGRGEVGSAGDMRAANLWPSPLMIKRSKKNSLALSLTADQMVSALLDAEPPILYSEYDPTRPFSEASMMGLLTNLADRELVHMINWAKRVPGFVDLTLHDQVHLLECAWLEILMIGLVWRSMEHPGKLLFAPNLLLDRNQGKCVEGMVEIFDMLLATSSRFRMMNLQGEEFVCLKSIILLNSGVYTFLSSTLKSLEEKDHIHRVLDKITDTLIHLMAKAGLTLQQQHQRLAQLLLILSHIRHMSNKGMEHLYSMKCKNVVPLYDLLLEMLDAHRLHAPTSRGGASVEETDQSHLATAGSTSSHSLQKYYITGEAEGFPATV
Description: Induction of ER-alpha degradation in human T47D cells assessed as reduction in ER-alpha stability at 10 uM incubated for 3 to 9 hrs in presence of protein synthesis inhibitor, CHX by CHX chase assay based western blot analysis. The following applies: time 3-9 hrs. Format: cell-based. A general note: In western blotting, separated proteins are transferred to a membrane and probed.

The subject of test [10] is T47D. Kind of test: Induction of autophagic flux in human T47D cells transfected with mCherry-EGFP-LC3 assessed as increase in red fluorescence at 1 to 10 uM incubated for 24 hrs by confocal microscopic analysis. Type of test: functional, cell-based. The following applies: dose 1-10 µM.
Test [11] concerns T47D. Kind of test: Induction of autophagy in human T47D cells assessed as increase in number of lysosomes at 1 to 10 uM by LysoTracker dye based confocal microscopy. Type of test: functional, cell-based. The following applies: dose 1-10 µM.
Test [12] concerns T47D. Kind of test: Anticancer activity against ER-alpha positive human T47D cells assessed as reduction in cell viability at 10 uM measured after 48 hrs by CCK8 assay. Format: functional, cell-based.
The subject of test [13] is T47D. Description: Inhibition of colony formation in human T47D cells at 10 uM incubated for 14 days in presence of autophagy inhibitor, 3-MA by crystal violet staining based analysis. Type of test: functional, cell-based. The following applies: time 14.0 day.
Test [14] has as its target T1, Estrogen receptor (Homo sapiens). Description: Induction of ER-alpha degradation in human T47D cells overexpressing ER-alpha assessed as decrease in MYC protein expression at 10 uM incubated for 24 hrs by western blot analysis. Format: cell-based.
The target is the same in test [15]. Description: Induction of ER-alpha degradation in tamoxifen-resistant human LCC2 cells assessed as decrease in ER-alpha protein expression at 10 uM by western blot analysis. Type of test: cell-based.
A further test has as its system LCC2. Description: Inhibition of colony formation in tamoxifen-resistant human LCC2 cells at 1 uM incubated for 14 days by crystal violet staining based analysis. Format: functional, cell-based. As to conditions: time 14.0 day.
Test [16] is described as follows: Induction of cell cycle arrest in tamoxifen-resistant human LCC2 cells assessed as proportion of cells at G1 phase at 5 uM by flow cytometry (reference value: 47.4%). Format: functional.
Test [17] in a line: Induction of cell cycle arrest in tamoxifen-resistant human LCC2 cells assessed as proportion of cells at G1 phase at 10 uM by flow cytometry (reference value: 47.4%). Type of test: functional.
Test [18] can be described thus: Induction of cell cycle arrest in tamoxifen-resistant human LCC2 cells assessed as proportion of cells at G2 phase at 10 uM by flow cytometry (reference value: 23.7%). Format: functional.
Test [19] relates to T47D. Description: Induction of autophagy in human T47D cells overexpressing ESR1 assessed as increase in LC3 protein expression by western blot analysis. Format: functional, cell-based.

The source made the active and inactive calls. No cut-off for these calls is given here.

On to `COc1ccc(N(CC(F)(F)F)S(=O)(=O)C2CC3OC2C(c2ccc(OCCN4CCCC4)cc2)=C3c2ccc(O)cc2)cc1` (stereo not given), for which the inhibition entry in the test with MCF7 [1] and in the test on LCC2 was “Active” throughout. Moreover, the Activity in the test with T47D [2] is recorded as 71.1%; in the test on T47D [3] it was 23.3%; in the test with MCF7 [4], 15.7%; in the test on MCF7 [5] it was 18.5%; with MCF7 [6], 15%; in the test on T47D [7] it was 78.57%. In addition, the values for the Activity in [16], in [17] and in test [18] were 71.9%, 71.6% and 13%, respectively. Further, the result (with MCF7 [8]; in test [9]; with T47D [10]; in the test with T47D [11]; in the test on T47D [12]; in test [15]) was Active. Moreover, the outcome with T47D [19] was Active. The inhibition entry in the test on T47D [13] is “inactive”. In addition, in test [14], the result was inactive.

For the origin of these results see ChEMBL document CHEMBL5252612, “A novel selective estrogen receptor degrader induces cell cycle arrest in breast cancer via ERα degradation and the autophagy-lysosome pathway” (Bioorg Med Chem, 2023).
